From PubChem BioAssay (NCI)
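Following 48 hours of exposure in 96-well plates, responses at five concentrations were used to interpolate endpoints linearly. GI50 marks 50% less growth. The concentration for full growth arrest is given as TGI.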

How the values were obtained:
Assay in all cases: NCI tumour cell line growth inhibition, 48 h
[1] = test system: NCI/ADR-RES ovarian
[2] = test system: RXF 393 renal
[3] = test system: CCRF-CEM leukemia
[4] = test system: NCI-H23 lung
[5] = test system: UO-31 renal
[6] = test system: KM12 colon
[7] = test system: IGROV1 ovarian
[8] = test system: SK-MEL-2 melanoma
[9] = test system: PC-3 prostate
[10] = test system: SW-620 colon
[11] = test system: ACHN renal
[12] = test system: CAKI-1 renal
[13] = test system: EKVX NSCLC
[14] = test system: HL-60(TB) leukemia
[15] = test system: OVCAR-5 ovarian
[16] = test system: UACC-62 melanoma
[17] = test system: SK-MEL-28 melanoma
[18] = test system: LOX IMVI melanoma
[19] = test system: COLO 205 colon
[20] = test system: MDA-MB-231 breast
[21] = test system: OVCAR-3 ovarian
[22] = test system: OVCAR-8 ovarian
[23] = test system: A549 NSCLC
[24] = test system: NCI-H226 lung
[25] = test system: SF-268 CNS
[26] = test system: HOP-62 NSCLC
[27] = test system: HCC-2998 colon
[28] = test system: HS 578T breast
[29] = test system: SN12C renal
[30] = test system: UACC-257 melanoma
[31] = test system: MCF7 breast
[32] = test system: HT29 colon
[33] = test system: HOP-92 NSCLC
[34] = test system: 786-0 renal
[35] = test system: U251 CNS
[36] = test system: SF-295 CNS
[37] = test system: HCT-15 colon
[38] = test system: NCI-H460 lung
[39] = test system: T-47D breast
[40] = test system: NCI-H522 lung
[41] = test system: M14 melanoma
[42] = test system: SNB-19 CNS
[43] = test system: TK-10 renal
[44] = test system: K-562 leukemia
[45] = test system: BT-549 breast
[46] = test system: MDA-MB-435
[47] = test system: HCT-116 colon
[48] = test system: SK-MEL-5 melanoma
[49] = test system: DU-145 prostate
[50] = test system: MOLT-4 leukemia
[51] = test system: SK-OV-3 ovarian
[52] = test system: SF-539 CNS
[53] = test system: SNB-75 CNS
[54] = test system: OVCAR-4 ovarian
[55] = test system: RPMI-8226 leukemia
[56] = test system: A498 renal

**Q.** Which results are given for `O=C(NNC(=O)C1CCN(S(=O)(=O)c2ccc(-c3ccccc3)cc2)CC1)c1ccc(C(F)(F)F)cc1`?
**A.** GI50 [1]: > 50 µM; TGI [1]: > 50 µM; GI50 [2]: 20.3 µM; TGI [2]: > 50 µM; GI50 [3]: > 50 µM; TGI [3]: > 50 µM; GI50 [4]: 14.1 µM; TGI [4]: > 50 µM; GI50 [5]: > 50 µM; TGI [5]: > 50 µM; GI50 [6]: > 50 µM; TGI [6]: > 50 µM; GI50 [7]: > 50 µM; TGI [7]: > 50 µM; GI50 [8]: > 50 µM; TGI [8]: > 50 µM; GI50 [9]: > 50 µM; TGI [9]: > 50 µM; GI50 [10]: > 50 µM; TGI [10]: > 50 µM; GI50 [11]: > 50 µM; TGI [11]: > 50 µM; GI50 [12]: > 50 µM; TGI [12]: > 50 µM; GI50 [13]: > 50 µM; TGI [13]: > 50 µM; GI50 [14]: > 50 µM; TGI [14]: > 50 µM; GI50 [15]: > 50 µM; TGI [15]: > 50 µM; GI50 [16]: > 50 µM; TGI [16]: > 50 µM; GI50 [17]: > 50 µM; TGI [17]: > 50 µM; GI50 [18]: > 50 µM; TGI [18]: > 50 µM; GI50 [19]: > 50 µM; TGI [19]: > 50 µM; GI50 [20]: 1.58 µM; TGI [20]: 34.9 µM; GI50 [21]: > 50 µM; TGI [21]: > 50 µM; GI50 [22]: 22 µM; TGI [22]: > 50 µM; GI50 [23]: > 50 µM; TGI [23]: > 50 µM; GI50 [24]: 14.6 µM; TGI [24]: > 50 µM; GI50 [25]: > 50 µM; TGI [25]: > 50 µM; GI50 [26]: 5.46 µM; TGI [26]: 16.5 µM; GI50 [27]: 20.6 µM; TGI [27]: > 50 µM; GI50 [28]: 38.3 µM; TGI [28]: > 50 µM; GI50 [29]: 21.4 µM; TGI [29]: > 50 µM; GI50 [30]: > 50 µM; TGI [30]: > 50 µM; GI50 [31]: > 50 µM; TGI [31]: > 50 µM; GI50 [32]: > 50 µM; TGI [32]: > 50 µM; GI50 [33]: 2.89 µM; TGI [33]: > 50 µM; GI50 [34]: 7.21 µM; TGI [34]: 34.1 µM; GI50 [35]: 11.8 µM; TGI [35]: > 50 µM; GI50 [36]: > 50 µM; TGI [36]: > 50 µM; GI50 [37]: > 50 µM; TGI [37]: > 50 µM; GI50 [38]: > 50 µM; TGI [38]: > 50 µM; GI50 [39]: 3.99 µM; TGI [39]: > 50 µM; GI50 [40]: > 50 µM; TGI [40]: > 50 µM; GI50 [41]: 15.9 µM; TGI [41]: > 50 µM; GI50 [42]: 15.4 µM; TGI [42]: > 50 µM; GI50 [43]: 20.8 µM; TGI [43]: > 50 µM; GI50 [44]: > 50 µM; TGI [44]: > 50 µM; GI50 [45]: 44.1 µM; TGI [45]: > 50 µM; GI50 [46]: > 50 µM; TGI [46]: > 50 µM; GI50 [47]: 4.77 µM; TGI [47]: 13.2 µM; GI50 [48]: > 50 µM; TGI [48]: > 50 µM

**Q.** With `CSc1nc(-c2ccccc2)c(C#N)c(=O)[nH]1` as the compound, how does the TGI [1] read?
**A.** Its TGI is > 100 µM.

**Q.** What about the TGI [2] of the same compound?
**A.** Its TGI is > 100 µM.

**Q.** What about the TGI [3] of the same compound?
**A.** Its TGI is > 100 µM.

**Q.** And the TGI [49]?
**A.** Its TGI is > 100 µM.

**Q.** What about the TGI [4] of the same compound?
**A.** Its TGI is > 100 µM.

**Q.** What about the TGI [50] of the same compound?
**A.** Its TGI is > 100 µM.

**Q.** What about the TGI [5] of the same compound?
**A.** Its TGI is > 100 µM.

**Q.** What about the TGI [51] of the same compound?
**A.** Its TGI is > 100 µM.

**Q.** And the TGI [6]?
**A.** The TGI was > 100 µM.

**Q.** What about the TGI [7] of the same compound?
**A.** Its TGI is > 100 µM.

**Q.** What about the TGI [8] of the same compound?
**A.** The TGI was > 100 µM.

**Q.** And the TGI [9]?
**A.** The TGI was > 100 µM.

**Q.** And the TGI [52]?
**A.** The TGI was > 100 µM.

**Q.** What about the TGI [10] of the same compound?
**A.** Its TGI is > 100 µM.

**Q.** And the TGI [11]?
**A.** The TGI was > 100 µM.

**Q.** And the TGI [12]?
**A.** The TGI was > 100 µM.

**Q.** What about the TGI [13] of the same compound?
**A.** Its TGI is > 100 µM.

**Q.** And the TGI [14]?
**A.** Its TGI is > 100 µM.

**Q.** What about the TGI [15] of the same compound?
**A.** The TGI was > 100 µM.

**Q.** And the TGI [16]?
**A.** Its TGI is > 100 µM.

**Q.** And the TGI [17]?
**A.** The TGI was > 100 µM.

**Q.** And the TGI [19]?
**A.** Its TGI is > 100 µM.

**Q.** And the TGI [20]?
**A.** Its TGI is > 100 µM.

**Q.** What about the TGI [53] of the same compound?
**A.** Its TGI is > 100 µM.

**Q.** What about the TGI [21] of the same compound?
**A.** Its TGI is > 100 µM.

**Q.** And the TGI [22]?
**A.** Its TGI is > 100 µM.

**Q.** What about the TGI [23] of the same compound?
**A.** The TGI was > 100 µM.

**Q.** And the TGI [54]?
**A.** The TGI was > 100 µM.

**Q.** And the TGI [24]?
**A.** Its TGI is > 100 µM.

**Q.** What about the TGI [25] of the same compound?
**A.** The TGI was > 100 µM.

**Q.** And the TGI [26]?
**A.** The TGI was > 100 µM.

**Q.** What about the TGI [55] of the same compound?
**A.** The TGI was > 100 µM.

**Q.** And the TGI [27]?
**A.** The TGI was > 100 µM.

**Q.** What about the TGI [28] of the same compound?
**A.** Its TGI is > 100 µM.

**Q.** And the TGI [29]?
**A.** Its TGI is > 100 µM.

**Q.** What about the TGI [30] of the same compound?
**A.** The TGI was > 100 µM.

**Q.** And the TGI [31]?
**A.** The TGI was > 100 µM.

**Q.** And the TGI [32]?
**A.** Its TGI is > 100 µM.

**Q.** And the TGI [33]?
**A.** The TGI was > 100 µM.

**Q.** What about the TGI [34] of the same compound?
**A.** Its TGI is > 100 µM.

**Q.** What about the TGI [35] of the same compound?
**A.** The TGI was > 100 µM.

**Q.** What about the TGI [36] of the same compound?
**A.** Its TGI is > 100 µM.

**Q.** And the TGI [37]?
**A.** Its TGI is > 100 µM.

**Q.** And the TGI [38]?
**A.** Its TGI is > 100 µM.

**Q.** And the TGI [39]?
**A.** The TGI was > 100 µM.

**Q.** What about the TGI [40] of the same compound?
**A.** Its TGI is > 100 µM.

**Q.** And the TGI [41]?
**A.** Its TGI is > 100 µM.

**Q.** What about the TGI [42] of the same compound?
**A.** The TGI was > 100 µM.

**Q.** And the TGI [43]?
**A.** Its TGI is > 100 µM.

**Q.** What about the TGI [44] of the same compound?
**A.** Its TGI is > 100 µM.

**Q.** What about the TGI [45] of the same compound?
**A.** The TGI was > 100 µM.

**Q.** And the TGI [46]?
**A.** The TGI was > 100 µM.

**Q.** What about the TGI [56] of the same compound?
**A.** The TGI was > 100 µM.

**Q.** What about the TGI [47] of the same compound?
**A.** The TGI was > 100 µM.

**Q.** What about the TGI [48] of the same compound?
**A.** Its TGI is > 100 µM.
